According to patent publication US10145848B2, “Small-molecule hydrophobic tagging of fusion proteins and induced degradation of same” (YALE UNIVERSITY, priority 2010, dated 2018):
“Also recorded” adds a separate entry of the source.

Experiments:
EGFP-HaloTag = biological target: T1, EGFP-HaloTag (Rhodococcus rhodochrous, UniProt P0A3G2, C176G/H272F/K175M/Y273L); test: Flow cytometry of intracellular GFP fluorescence in HeLa cells expressing EGFP-HaloTag; assay type: cell-based; details: 1 μM, 24 hours
T1 construct: The HaloTag protein was obtained from pHT2 vector (Promega); expressed in transfected cells
Experimental: Stable HeLa cells were raised by cotransfection of pCS2/EGFP-HaloTag and p-Puro containing the puromycin resistance gene. A clonal population of cells expressing EGFP-HaloTag was isolated. These cells were treated with vehicle or 1 μM HyT13 for 24 hours, washed with PBS and trypsinized. The cells were resuspended in FBS-free DMEM and the intracellular GFP level was measured by FACSCalibur (BD Biosciences).
As the luciferase assay relied on the loss-of-activity of the luciferase-HaloTag fusion protein, we wanted to determine whether the decrease in luciferase activity resulted from the degradation of the entire fusion protein or perhaps simply inhibition of luciferase activity. We generated a stable Flp-In 293 cell line with a single integration site containing HA-EGFP-HaloTag fusion protein, and employed this cell line to perform kinetic studies with HyT13. […] Consistent with our previous observations, treatment of these cells with 1 μM of HyT13 for 24 hours reduced the mean fluorescence intensity of cells almost 7-fold. Together, these findings provide the first experimental evidence that hydrophobic tagging represents a viable strategy for the control of protein levels.

HEK293 or HeLa cells = test: Cell viability with Resazurin (alamarBlue); assay type: cell-based; details: up to 20 μM, 24 hours
Experimental: HEK293 or HeLa cells were treated with indicated concentrations of HyT13 for 24 hours. The oxidation-reduction indicator Resazurin (alamarBlue, Invitrogen) was employed to determine cell viability.

[1] = system: transmembrane HA-HaloTag fusion proteins (Ror2, CD3E, CD9, GPR40, Frizzled-4); test: Immunoblotting of transmembrane HA-HaloTag fusion proteins in HEK 293T cells; assay type: cell-based; details: 1 μM, 24 hours
[2] = system: NIH-3T3 cells infected with HA-HaloTag(D106A)-H-RasG12V; test: Focus formation assay, HA-HaloTag(D106A)-H-RasG12V cells; assay type: cell-based, mouse; details: 1 μM, 1% FBS, day 6
Experimental: One hundred thousand NIH-3T3 cells infected with HA-HaloTag-H-RasG12V and HA-HaloTag(D106A)-H-RasG12V were plated onto 10-cm cell culture plates in 10% FBS with DMEM. The next day, the media was replaced with 1% FBS media and the cells were administered either vehicle or 1 μM HyT13. The media and the drug were replaced every two days. On day 6, the foci were photographed and counted as the number of distinct foci per 1-cm^2 area.
We next explored the functional utility of HaloTag-based degradation of an oncogene by HyT13 both in cell culture and in mice. The small GTPase H-Ras is one of the most commonly mutated genes in cancer, with up to […] of cancers harboring activating mutations in this gene^35. Activating mutations, such as the H-RasG12V allele, lead to decreased dependence on extracellular mitogenic signals. […] When H-RasG12V expressing cells are grown in culture under low serum conditions they lose cell-to-cell contact inhibition and form distinct foci instead of growing as a cellular monolayer. Furthermore, these transformed cells are capable of tumor formation when injected into immuno-compromised nude mice^36,37. We investigated whether (1) HaloTag-H-RasG12V driven focus formation can be suppressed in NIH-3T3 cells and (2) HaloTag-H-RasG12V driven tumor burden in mice can be reduced by administration of HyT13. […]

[3] = Maximum tolerated dose experiment / weight gain in nude mice; assay type: in vivo
Text: Nude mice were daily IP injected with indicated concentrations of HyT13 and were monitored for weight gain during the 14-day experiment. Shown is the percent weight gained during the 14-day period for each treatment group ±SEM. Each treatment group consisted of 7 mice.
To examine whether the HaloTag:HyT13 based system could be used in mouse models to relieve the H-RasG12V-driven tumor burden, we first evaluated the pharmacokinetics of HyT13. We performed a maximum tolerated dose experiment with HyT13 in nude mice at doses up to 100 mg/kg over a 14-day treatment regimen. […] Next, we sought to determine the serum bioavailability of HyT13 following injections. HyT13 was administered at 25 mg/kg by intraperitoneal (IP) injection into Swiss Webster mice and the serum was collected at 1 and 24 hours post-injection. At 1 hour post HyT13 administration the blood serum concentration was approximately 2 μM, and by 24 hours the HyT13 concentration had dropped to about 500 nM (FIG. 10). Based on our previous experiments in a cell culture setting, we speculated that these serum HyT13 concentrations would be sufficient to suppress H-RasG12V tumor formation in mice. To test this, we injected NIH-3T3 cells expressing HA-HaloTag-H-RasG12V into the flank of nude mice and on the same day started a daily treatment regimen of vehicle, 25 mg/kg HyT13 or 100 mg/kg HyT13. […]

[4] = Serum HyT13 determination (bio-reporter assay); assay type: in vivo; details: mouse, intraperitoneal, 25 mg/kg IP, Swiss Webster mice, read-out: blood serum concentration
Experimental: Webster Swiss mice received IP injections of 25 mg/kg of HyT13. The injection volume was 10 μL, consisting of 5 μL, of Cremophor EL excipient and 5 μL, of HyT13 in DMSO. Blood was collected from the carotid artery 1 and 24 hours after the injection. The blood was allowed to coagulate for 10 minutes, centrifuged at 10,000 g for 5 minutes and the serum was pipetted into a new tube. Ten microliters of the serum were used for a bio-reporter assay, consisting of the ability to degrade luciferase activity in HEK 293T luciferase-HaloTag cells. The serum concentration of HyT13 was based on a concentration curve of HyT13 performed alongside the bio-reporter assay. […] Each treatment group consisted of three mice. Shown is the mean serum HyT13 level±SEM.
To examine whether the HaloTag:HyT13 based system could be used in mouse models to relieve the H-RasG12V-driven tumor burden, we first evaluated the pharmacokinetics of HyT13. We performed a maximum tolerated dose experiment with HyT13 in nude mice at doses up to 100 mg/kg over a 14-day treatment regimen. […] Next, we sought to determine the serum bioavailability of HyT13 following injections. HyT13 was administered at 25 mg/kg by intraperitoneal (IP) injection into Swiss Webster mice and the serum was collected at 1 and 24 hours post-injection. […]

Compound: O=C(CC12CC3CC(CC(C3)C1)C2)NCCOCCOCCCCCCCl [HyT13, 2-((3r,5r,7r)-Adamantan-1-yl)-N-(2-(2-((6-chlorohexyl)oxy)ethoxy)ethyl)acetamide]
- reduction of mean fluorescence intensity (EGFP-HaloTag): ~7 fold
- cellular toxicity (HEK293 or HeLa cells): No cellular toxicity was observed; also recorded: lack of noticeable HyT13 cytotoxicity; also recorded: exhibits no toxicity
- degradation of transmembrane HaloTag fusion proteins [1]: efficiently induced their degradation
- focus formation [2]: had formed many foci
- weight gain ([3]; mice injected daily at 100 mg/kg for 14 days): gained weight normally
- toxicity / phenotype in mice ([3]; nude mice, daily IP, doses up to 100 mg/kg, 14 days): No obvious phenotype was observed; also recorded: no observed toxicity
- concentration at 1 h ([4]; 1 hour post administration): ~2000 nM
- concentration at 24 h ([4]; 24 hours): ~500 nM
